The supplement of paper PMC10307832

These cell lines were tested with C(C(=O)C(=O)O)Br [Bromopyruvate] + CS(=O)(=O)N1CCN(Cc2cc3nc(-c4cccc5[nH]ncc45)nc(N4CCOCC4)c3s2)CC1 [Pictilisib] (partner 1 µM) (assay: relative viability (nuclei count vs DMSO), 5 days (fraction); higher = more cells survive). Conditions: first compound 1 µM.
How it was run: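 Five library-drug doses in √10 steps were combined with a fixed anchor-drug dose, or a single drug was given alone, by pin tool to lung cancer cell lines in 1536-well plates the day after seeding. Nuclei were stained and counted after 5 days. Relative viability is the nuclei count in treated wells over that in vehicle wells, taken as the median of duplicate plates.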
BEN was tested, and the relative viability was 0.64.
With HARA the relative viability was 0.276.
Cell Line HCC-78 has a relative viability of 0.201.
NCI-H2023 gave a relative viability of 0.236.
A-427 showed a relative viability of 0.678.
For NCI-H460, the relative viability was 0.483.
NCI-H727 gave a relative viability of 0.359.
NCI-H1734 was tested, and the relative viability was 0.493.
NCI-H520 showed a relative viability of 0.264.
Work on NCI-H2405 yielded a relative viability of 0.441.
Work on SW 1573 yielded a relative viability of 0.463.
NCI-H1395 was tested, and the relative viability was 0.556.
Work on 201T yielded a relative viability of 0.724.
NCI-H1915 gave a relative viability of 0.95.
HCC-827 showed a relative viability of 1.08.
LXF-289 was tested, and the relative viability was 0.756.
For NCI-H2347, the relative viability was 0.899.

Same assay, conditions: first compound 3.162 µM
Calu-6 gave a relative viability of 0.958.
For HCC-366, the relative viability was 0.208.
NCI-H1666 showed a relative viability of 0.418.
NCI-H647 gave a relative viability of 0.421.
Work on LK-2 yielded a relative viability of 0.526.
With NCI-H2126 the relative viability was 0.511.
For SK-MES-1, the relative viability was 0.32.
Work on H3255 yielded a relative viability of 0.503.
COR-L23 showed a relative viability of 0.772.
COR-L 105 gave a relative viability of 0.371.
For IA-LM, the relative viability was 0.357.
LOU-NH91 showed a relative viability of 0.548.
NCI-H2170 gave a relative viability of 0.367.
In the case of NCI-H3122, the relative viability is reported as 0.664.
For HOP-62, the relative viability was 0.889.
With HCC-44 the relative viability was 0.625.
For A549, the relative viability was 0.629.
For LU99A, the relative viability was 0.29.
BEN gave a relative viability of 0.505.
In the case of HARA, the relative viability is reported as 0.47.
Work on HCC-78 yielded a relative viability of 0.202.
For NCI-H2023, the relative viability was 0.237.
In the case of A-427, the relative viability is reported as 0.809.
NCI-H460 showed a relative viability of 0.315.
Cell Line NCI-H727 has a relative viability of 0.417.
NCI-H1734 was tested, and the relative viability was 0.486.
For NCI-H520, the relative viability was 0.34.
NCI-H2405 showed a relative viability of 0.524.
SW 1573 gave a relative viability of 0.438.
For NCI-H1395, the relative viability was 0.561.
For 201T, the relative viability was 0.692.
For NCI-H1915, the relative viability was 0.934.
HCC-827 was tested, and the relative viability was 0.909.
LXF-289 was tested, and the relative viability was 0.758.
Cell Line NCI-H2347 has a relative viability of 0.478.

Same assay, conditions: first compound 10 µM
Calu-6 was tested, and the relative viability was 0.966.
In the case of HCC-366, the relative viability is reported as 0.205.
Work on NCI-H1666 yielded a relative viability of 0.567.
Work on NCI-H647 yielded a relative viability of 0.393.
LK-2 was tested, and the relative viability was 0.59.
With NCI-H2126 the relative viability was 0.456.
With SK-MES-1 the relative viability was 0.427.
H3255 was tested, and the relative viability was 0.45.
In the case of COR-L23, the relative viability is reported as 0.98.
Work on COR-L 105 yielded a relative viability of 0.361.
IA-LM showed a relative viability of 0.328.
In the case of LOU-NH91, the relative viability is reported as 0.48.
Work on NCI-H2170 yielded a relative viability of 0.274.
With NCI-H3122 the relative viability was 0.879.
For HCC-44, the relative viability was 0.693.
A549 showed a relative viability of 0.489.
LU99A was tested, and the relative viability was 0.319.
With BEN the relative viability was 0.63.
HARA was tested, and the relative viability was 0.332.
HCC-78 gave a relative viability of 0.224.
Cell Line LCLC-97TM1 has a relative viability of 0.244.
NCI-H2023 was tested, and the relative viability was 0.221.
A-427 gave a relative viability of 0.483.
NCI-H460 showed a relative viability of 0.419.
NCI-H727 showed a relative viability of 0.604.
NCI-H1734 gave a relative viability of 0.542.
With NCI-H520 the relative viability was 0.337.
NCI-H2405 gave a relative viability of 0.431.
SW 1573 was tested, and the relative viability was 0.46.
With NCI-H1395 the relative viability was 0.568.
With 201T the relative viability was 0.626.
NCI-H1915 was tested, and the relative viability was 0.9.
Cell Line HCC-827 has a relative viability of 1.14.
Work on LXF-289 yielded a relative viability of 0.802.
NCI-H2347 was tested, and the relative viability was 0.737.

Same assay, conditions: first compound 31.62 µM
With Calu-6 the relative viability was 0.743.
HCC-366 was tested, and the relative viability was 0.143.
NCI-H1666 gave a relative viability of 0.558.
NCI-H647 was tested, and the relative viability was 0.474.
Work on LK-2 yielded a relative viability of 0.704.
NCI-H2126 showed a relative viability of 0.562.
In the case of SK-MES-1, the relative viability is reported as 0.373.
With H3255 the relative viability was 0.519.
COR-L23 was tested, and the relative viability was 0.673.
For COR-L 105, the relative viability was 0.434.
With IA-LM the relative viability was 0.28.
LOU-NH91 showed a relative viability of 0.516.
Cell Line NCI-H2170 has a relative viability of 0.319.
NCI-H3122 showed a relative viability of 0.554.
HOP-62 gave a relative viability of 0.836.
HCC-44 gave a relative viability of 0.66.
A549 gave a relative viability of 0.494.
In the case of LU99A, the relative viability is reported as 0.306.
BEN showed a relative viability of 0.552.
HARA gave a relative viability of 0.485.
With HCC-78 the relative viability was 0.218.
Work on LCLC-97TM1 yielded a relative viability of 0.191.
NCI-H2023 showed a relative viability of 0.209.
A-427 gave a relative viability of 0.746.
NCI-H460 showed a relative viability of 0.358.
For NCI-H727, the relative viability was 0.389.
In the case of NCI-H1734, the relative viability is reported as 0.551.
Work on NCI-H520 yielded a relative viability of 0.293.
With NCI-H2405 the relative viability was 0.349.
For SW 1573, the relative viability was 0.521.
In the case of NCI-H1395, the relative viability is reported as 0.629.
201T was tested, and the relative viability was 0.683.
Cell Line NCI-H1915 has a relative viability of 0.955.
With HCC-827 the relative viability was 1.17.
For LXF-289, the relative viability was 0.867.
With NCI-H2347 the relative viability was 0.541.

Same assay, conditions: first compound 100 µM
With Calu-6 the relative viability was 0.829.
Cell Line HCC-366 has a relative viability of 0.164.
With NCI-H1666 the relative viability was 0.531.
Work on NCI-H647 yielded a relative viability of 0.455.
LK-2 gave a relative viability of 0.642.
In the case of NCI-H2126, the relative viability is reported as 0.509.
SK-MES-1 showed a relative viability of 0.321.
H3255 was tested, and the relative viability was 0.588.
For COR-L23, the relative viability was 0.524.
Cell Line COR-L 105 has a relative viability of 0.379.
In the case of IA-LM, the relative viability is reported as 0.434.
Work on LOU-NH91 yielded a relative viability of 0.589.
For NCI-H2170, the relative viability was 0.306.
For NCI-H3122, the relative viability was 0.567.
With HOP-62 the relative viability was 0.988.
Work on HCC-44 yielded a relative viability of 0.671.
For A549, the relative viability was 0.6.
Work on LU99A yielded a relative viability of 0.35.
BEN was tested, and the relative viability was 0.508.
With HARA the relative viability was 0.449.
HCC-78 was tested, and the relative viability was 0.249.
In the case of LCLC-97TM1, the relative viability is reported as 0.183.
Cell Line NCI-H2023 has a relative viability of 0.25.
In the case of A-427, the relative viability is reported as 0.718.
For NCI-H460, the relative viability was 0.349.
For NCI-H727, the relative viability was 0.339.
NCI-H1734 was tested, and the relative viability was 0.451.
NCI-H520 gave a relative viability of 0.317.
Cell Line NCI-H2405 has a relative viability of 0.517.
In the case of SW 1573, the relative viability is reported as 0.303.
NCI-H1395 showed a relative viability of 0.615.
201T was tested, and the relative viability was 0.7.
Cell Line NCI-H1915 has a relative viability of 0.897.
For HCC-827, the relative viability was 0.849.
LXF-289 showed a relative viability of 0.816.
Cell Line NCI-H2347 has a relative viability of 0.677.

The cell lines below were run with C(C(=O)C(=O)O)Br [Bromopyruvate] (assay: relative viability (nuclei count vs DMSO), 5 days (fraction); higher = more cells survive). Conditions: 1 µM.
How it was run: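 A plate was accepted only when its control CV was below 25% and the cells had doubled at least once. Viability is defined from nuclear counts as treated wells divided by vehicle wells, with the median taken across plates. That median covers lung cancer cell lines grown in 1536-well plates, dosed by pinning at five √10-spaced library-drug concentrations, and counted in MetaXpress from 4× Hoechst images after 5 days.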
Calu-6 showed a relative viability of 0.934.
Cell Line HCC-366 has a relative viability of 0.996.
